Experimental data: ChEMBL document CHEMBL4342408, “Therapeutic potentials of plant iridoids in Alzheimer's and Parkinson's diseases: A review” (Eur J Med Chem, 2019)

Key:
[1] = Inhibition of human tau (441 residues) P301L mutant expressed in Escherichia coli BL21(DE3) assessed as reduction in aggregation
[2] = species: Homo sapiens; assay: Inhibition of human tau (441 residues) P301L mutant expressed in Escherichia coli BL21(DE3) assessed as reduction in aggregation at 10 uM relative to control
[3] = target: Microtubule-associated protein tau (Homo sapiens) (UniProt P10636); assay: Inhibition of human tau (441 residues) expressed in Escherichia coli BL21(DE3) assessed as reduction in aggregation at 10 uM relative to control
Sequence of Microtubule-associated protein tau (Homo sapiens) (P10636 whole entry): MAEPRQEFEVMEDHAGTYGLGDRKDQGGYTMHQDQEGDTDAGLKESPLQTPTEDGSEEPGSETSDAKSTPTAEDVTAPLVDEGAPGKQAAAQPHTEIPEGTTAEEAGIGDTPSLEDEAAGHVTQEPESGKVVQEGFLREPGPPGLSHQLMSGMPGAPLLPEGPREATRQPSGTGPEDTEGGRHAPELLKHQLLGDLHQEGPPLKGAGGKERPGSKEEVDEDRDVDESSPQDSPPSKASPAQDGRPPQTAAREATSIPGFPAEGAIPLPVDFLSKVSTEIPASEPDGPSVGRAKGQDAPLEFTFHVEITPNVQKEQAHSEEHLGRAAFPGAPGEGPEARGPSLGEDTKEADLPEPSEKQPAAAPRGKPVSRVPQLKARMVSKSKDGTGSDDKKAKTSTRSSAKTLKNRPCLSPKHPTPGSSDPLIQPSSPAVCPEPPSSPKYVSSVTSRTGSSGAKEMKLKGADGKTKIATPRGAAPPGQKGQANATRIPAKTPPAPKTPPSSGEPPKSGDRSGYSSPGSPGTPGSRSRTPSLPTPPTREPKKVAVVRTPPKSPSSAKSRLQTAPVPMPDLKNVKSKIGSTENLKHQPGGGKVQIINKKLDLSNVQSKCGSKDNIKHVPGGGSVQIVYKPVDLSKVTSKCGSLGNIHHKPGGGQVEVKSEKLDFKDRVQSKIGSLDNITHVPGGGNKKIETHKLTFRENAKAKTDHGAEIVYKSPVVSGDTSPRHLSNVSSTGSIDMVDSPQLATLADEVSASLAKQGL

[4] = Inhibition of beta secretase (unknown origin); parameters: species or system Homo sapiens

C/C=C1/[C@H](O)OC=C(C(=O)OC)[C@H]1CC(=O)OCCc1ccc(O)c(O)c1
IC50 [1]: 1300 nM
inhibition [2]: 84%
inhibition [3]: 79%

COC(=O)C1=CO[C@@H](O[C@@H]2O[C@H](CO)[C@@H](O)[C@H](O)[C@H]2O)[C@@H]2[C@@H](C)[C@@H](O)C[C@H]12 [LOGANIN]
Ki [4]: 55 µM
